Data from patent US12708649B2, “Compositions and methods for improving skin health and for the treatment and prevention of diseases, disorders and conditions associated with fungi and other pathogenic microbes” (priority 2020, dated 2026).
Converted amounts (≈) assume the structure as drawn. Like-named read-outs stand apart in the source and are kept apart here.

How the values were obtained:
DB10033 = assay: Antibiotic MIC tests; format: cell-based, Bacillus altitudinis; settings: for MIC: Bacillus altitudinis
DB02473 = assay: Antibiotic MIC tests; format: cell-based
DB05646 = assay: Antibiotic MIC tests; format: cell-based, Alcaligenes faecalis; settings: for MIC: Alcaligenes faecalis
DB00376 = assay: Antibiotic MIC tests; format: cell-based
E. coli ATCC 25922 = settings: MIC; cited from earlier work
[1] = 24 h, read-out: MIC, DB10033 24 hr
[2] = 48 h, read-out: MIC, DB10033 48 hr
[3] = 24 h, read-out: MIC, DB02473 24 hr
[4] = 48 h, read-out: MIC, DB02473 48 hr
[5] = 24 h, read-out: MIC, DB05646 24 hr
[6] = 48 h, read-out: MIC, DB05646 48 hr
[7] = 24 h, read-out: MIC, DB00376 24 hr
[8] = 48 h, read-out: MIC, DB00376 48 hr

Amoxicillin/Clavulanate (4:1)
MIC, DB10033 24 hr (DB10033): ≤0.06 µg/mL
MIC, DB10033 48 hr (DB10033): ≤0.06 µg/mL
MIC, DB02473 24 hr (DB02473): ≤0.06 µg/mL
MIC, DB02473 48 hr (DB02473): ≤0.06 µg/mL
MIC, DB05646 24 hr (DB05646): 32 µg/mL
MIC, DB05646 48 hr (DB05646): 32 µg/mL
MIC, DB00376 24 hr (DB00376): ≤0.06 µg/mL
MIC, DB00376 48 hr (DB00376): ≤0.06 µg/mL

C/C(=C\C(=O)OCCCCCCCCC(=O)O)C[C@@H]1OC[C@H](C[C@@H]2O[C@H]2[C@@H](C)[C@H](C)O)[C@@H](O)[C@H]1O [Mupirocin]
MIC (DB10033; [1]): 8 µg/mL (≈ 16 µM)
MIC (DB10033; [2]): 64 µg/mL (≈ 128 µM)
MIC (DB02473; [3]): ≤ 1 µg/mL
MIC (DB02473; [4]): ≤ 1 µg/mL
MIC (DB05646; [5]): 64 µg/mL (≈ 128 µM)
MIC (DB05646; [6]): 128 µg/mL (≈ 256 µM)
MIC (DB00376; [7]): 2 µg/mL (≈ 3.99 µM)
MIC (DB00376; [8]): 16 µg/mL (≈ 32 µM)

CC[C@H]1OC(=O)[C@H](C)[C@@H](O[C@H]2C[C@@](C)(OC)[C@@H](O)[C@H](C)O2)[C@H](C)[C@@H](O[C@@H]2O[C@H](C)C[C@H](N(C)C)[C@H]2O)[C@](C)(O)C[C@@H](C)C(=O)[C@H](C)[C@@H](O)[C@]1(C)O [Erythromycin]
MIC (DB10033; [1]): ≤ 0.06 µg/mL
MIC (DB10033; [2]): ≤ 0.06 µg/mL
MIC (DB02473; [4]): 0.125 µg/mL (≈ 0.17 µM)
MIC (DB05646; [5]): 16 µg/mL (≈ 21.8 µM)
MIC (DB05646; [6]): 64 µg/mL (≈ 87.2 µM)
MIC (DB00376; [7]): 0.125 µg/mL (≈ 0.17 µM)
MIC (DB00376; [8]): 0.5 µg/mL (≈ 0.681 µM)

CO/N=C(\C(=O)N[C@@H]1C(=O)N2C(C(=O)[O-])=C(C[N+]3(C)CCCC3)CS[C@H]12)c1csc(N)n1 [Cefepime]
E. coli ATCC 25922 CLSI QC Range (E. coli ATCC 25922): 0.016 to 0.12 µg/mL
MIC (DB10033; [1]): 64 µg/mL (≈ 133 µM)
MIC (DB10033; [2]): 64 µg/mL (≈ 133 µM)
MIC (DB02473; [3]): 2 µg/mL (≈ 4.16 µM)
MIC (DB02473; [4]): 4 µg/mL (≈ 8.32 µM)
MIC (DB05646; [5]): 4 µg/mL (≈ 8.32 µM)
MIC (DB05646; [6]): 8 µg/mL (≈ 16.6 µM)
MIC (DB00376; [7]): 1 µg/mL (≈ 2.08 µM)
MIC (DB00376; [8]): 64 µg/mL (≈ 133 µM)

Povidone-iodine
MIC, DB10033 24 hr (DB10033): >1024 µg/mL
MIC, DB10033 48 hr (DB10033): >1024 µg/mL
MIC, DB02473 24 hr (DB02473): >1024 µg/mL
MIC, DB02473 48 hr (DB02473): >1024 µg/mL
MIC, DB05646 24 hr (DB05646): >1024 µg/mL
MIC, DB05646 48 hr (DB05646): >1024 µg/mL
MIC, DB00376 24 hr (DB00376): >1024 µg/mL
MIC, DB00376 48 hr (DB00376): >1024 µg/mL

O=C(O)c1cn(C2CC2)c2cc(N3CCNCC3)c(F)cc2c1=O [Ciprofloxacin]
MIC (DB10033; [1]): 0.125 µg/mL (≈ 0.377 µM)
MIC (DB10033; [2]): 1 µg/mL (≈ 3.02 µM)
MIC (DB02473; [3]): ≤ 0.06 µg/mL
MIC (DB02473; [4]): 0.125 µg/mL (≈ 0.377 µM)
MIC (DB05646; [5]): 2 µg/mL (≈ 6.04 µM)
MIC (DB05646; [6]): 2 µg/mL (≈ 6.04 µM)
MIC (DB00376; [7]): 0.0625 µg/mL (≈ 0.189 µM)
MIC (DB00376; [8]): 0.5 µg/mL (≈ 1.51 µM)

CN(C)c1ccc(O)c2c1C[C@H]1C[C@H]3[C@H](N(C)C)C(O)=C(C(N)=O)C(=O)[C@@]3(O)C(O)=C1C2=O [Minocycline]
MIC (DB10033; [1]): 2 µg/mL (≈ 4.37 µM)
MIC (DB10033; [2]): 2 µg/mL (≈ 4.37 µM)
MIC (DB02473; [3]): 0.125 µg/mL (≈ 0.273 µM)
MIC (DB02473; [4]): 0.5 µg/mL (≈ 1.09 µM)
MIC (DB05646; [5]): 2 µg/mL (≈ 4.37 µM)
MIC (DB05646; [6]): 4 µg/mL (≈ 8.74 µM)
MIC (DB00376; [7]): 0.0625 µg/mL (≈ 0.137 µM)
MIC (DB00376; [8]): 0.25 µg/mL (≈ 0.546 µM)

CO/N=C(\C(=O)N[C@@H]1C(=O)N2C(C(=O)O)=C(CSc3nc(=O)c(=O)[nH]n3C)CS[C@H]12)c1csc(N)n1 [Ceftriaxone]
E. coli ATCC 25922 CLSI QC Range (E. coli ATCC 25922): 0.03 to 0.12 µg/mL
MIC (DB10033; [1]): 16 µg/mL (≈ 28.9 µM)
MIC (DB10033; [2]): 16 µg/mL (≈ 28.9 µM)
MIC (DB02473; [3]): 4 µg/mL (≈ 7.21 µM)
MIC (DB02473; [4]): 16 µg/mL (≈ 28.9 µM)
MIC (DB05646; [5]): 0.25 µg/mL (≈ 0.451 µM)
MIC (DB05646; [6]): 0.25 µg/mL (≈ 0.451 µM)
MIC (DB00376; [7]): 2 µg/mL (≈ 3.61 µM)
MIC (DB00376; [8]): 4 µg/mL (≈ 7.21 µM)

NCC[C@H](O)C(=O)N[C@@H]1C[C@H](N)[C@@H](O[C@H]2O[C@H](CN)[C@@H](O)[C@H](O)[C@H]2O)[C@H](O)[C@H]1O[C@H]1O[C@H](CO)[C@@H](O)[C@H](N)[C@H]1O [Amikacin]
E. coli ATCC 25922 CLSI QC Range (E. coli ATCC 25922): 0.5-4^ μg/mL
MIC (DB10033; [1]): 0.5 µg/mL (≈ 0.854 µM)
MIC (DB10033; [2]): 2 µg/mL (≈ 3.42 µM)
MIC (DB02473; [3]): 0.25 µg/mL (≈ 0.427 µM)
MIC (DB02473; [4]): 0.25 µg/mL (≈ 0.427 µM)
MIC (DB05646; [5]): 4 µg/mL (≈ 6.83 µM)
MIC (DB05646; [6]): 4 µg/mL (≈ 6.83 µM)
MIC (DB00376; [7]): 0.5 µg/mL (≈ 0.854 µM)
MIC (DB00376; [8]): 1 µg/mL (≈ 1.71 µM)

C[C@H]1COc2c(N3CCN(C)CC3)c(F)cc3c(=O)c(C(=O)O)cn1c23 [Levofloxacin]
MIC (DB10033; [1]): ≤ 0.06 µg/mL
MIC (DB10033; [2]): 0.125 µg/mL (≈ 0.346 µM)
MIC (DB02473; [3]): ≤ 0.06 µg/mL
MIC (DB05646; [5]): 1 µg/mL (≈ 2.77 µM)
MIC (DB05646; [6]): 1 µg/mL (≈ 2.77 µM)
MIC (DB00376; [7]): ≤ 0.06 µg/mL
MIC (DB00376; [8]): 0.125 µg/mL (≈ 0.346 µM)
